Experiments:
Z-138 cells = assay: Z-138 Proliferation Assay (Cell Titer Glo, 5 days); assay type: cell-based; conditions: Homo sapiens, Table D-2
In short: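 Exponentially growing Z-138 cells (10,000 cells/ml) in RPMI 1640 with 10% FBS are exposed to nine-point 3-fold dilutions (final top concentration 20 μM, 0.2% DMSO) for 5 days at 37° C. Viability is measured as ATP by CellTiter-Glo luminescence. The 50% inhibitory concentration comes from a 4-parameter fit.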

PRMT5/MEP50 = target: T1, PRMT5/MEP50 (Homo sapiens, UniProt O14744); assay: PRMT5 Biochemical Assay (PRMT5/MEP50 enzyme assay on peptide substrate, 3H-SAM Flashplate); conditions: Table D-2; read-out: Biochemical IC50
T1 construct: Expressed full-length human Flag-PRMT5/6His-MeP50 protein complex was purified; made in house; host or cells: Spodoptera frugiperda (SF9) insect cells, baculovirus (pDEST8)
T1 sequence (O14744 with tags, fused parts or gaps): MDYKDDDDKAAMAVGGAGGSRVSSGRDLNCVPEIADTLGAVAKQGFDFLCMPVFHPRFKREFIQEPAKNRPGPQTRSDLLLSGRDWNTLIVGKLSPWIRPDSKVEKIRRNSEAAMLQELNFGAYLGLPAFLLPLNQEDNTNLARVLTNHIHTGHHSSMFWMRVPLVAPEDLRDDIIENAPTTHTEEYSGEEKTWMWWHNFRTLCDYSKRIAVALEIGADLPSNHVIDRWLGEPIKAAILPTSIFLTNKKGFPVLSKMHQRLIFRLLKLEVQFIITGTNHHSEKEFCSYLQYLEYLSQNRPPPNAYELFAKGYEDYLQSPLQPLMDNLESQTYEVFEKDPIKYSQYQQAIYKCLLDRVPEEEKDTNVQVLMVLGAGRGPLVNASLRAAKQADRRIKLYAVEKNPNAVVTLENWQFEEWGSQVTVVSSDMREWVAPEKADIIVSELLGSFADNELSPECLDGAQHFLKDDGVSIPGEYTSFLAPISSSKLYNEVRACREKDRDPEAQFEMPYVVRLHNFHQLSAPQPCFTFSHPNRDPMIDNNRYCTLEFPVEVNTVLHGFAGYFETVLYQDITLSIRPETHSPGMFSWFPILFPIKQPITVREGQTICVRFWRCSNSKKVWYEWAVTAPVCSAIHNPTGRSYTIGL
T1 sequence (Q9BQA1 with tags, fused parts or gaps partner limits assumed): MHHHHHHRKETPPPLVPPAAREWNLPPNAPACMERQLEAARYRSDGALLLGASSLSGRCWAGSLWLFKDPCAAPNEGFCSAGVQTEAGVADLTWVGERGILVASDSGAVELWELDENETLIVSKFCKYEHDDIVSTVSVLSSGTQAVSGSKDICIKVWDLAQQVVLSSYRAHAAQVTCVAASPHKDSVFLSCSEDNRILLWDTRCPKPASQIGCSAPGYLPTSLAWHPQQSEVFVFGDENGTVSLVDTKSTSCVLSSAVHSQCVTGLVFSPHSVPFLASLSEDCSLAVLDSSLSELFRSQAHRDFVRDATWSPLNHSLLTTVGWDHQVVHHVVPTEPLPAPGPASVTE

N#Cc1ccccc1-c1cccc(OCC(O)CN2CCc3ccccc3C2)c1 (stereo not drawn) [Compound D93]
EC50 (Z-138 cells): 10 to 40 µM | IC50 (PRMT5/MEP50): 0.101 to 1 µM

N#Cc1ccc(-c2cccc(OCC(O)CN3CCc4ccccc4C3)c2)cc1 (stereo not drawn) [Compound D94]
EC50 (Z-138 cells): 10 to 40 µM | IC50 (PRMT5/MEP50): 0.101 to 1 µM

Oc1cccc(-c2cccc(OCC(O)CN3CCc4ccccc4C3)c2)c1 (stereo not drawn) [Compound D95]
EC50 (Z-138 cells): 10 to 40 µM | IC50 (PRMT5/MEP50): 0.101 to 1 µM
